The values below come from patent US6995175B2, “Chemical derivatives and their application as antitelomerase agent” (Aventis Pharma S.A., priority 2001, dated 2006).

Structures can show the parent of a compound that is named as a salt.

For orientation: IC50 means the concentration at which inhibition is half-maximal. The low end stands for higher potency, the high end for lower potency.

In assay [1] the test system is G-quadruplex oligonucleotide GGGTTAGGGTTAGGGTTAGGG (3.5 repeats of the human telomeric unit). Kind of assay: G-quadruplex stabilization, fluorescence Tm (FAM+DABCYL oligonucleotide). The class given is binding. Conditions: increase in Tm vs reference without product (44° C. in LiCl buffer), 0.2 μM oligonucleotide, 0.1 M LiCl, 10 mM cacodylate pH 7.6. The text has this:
The G-quadruplex stabilizing activity may be determined by a method using the formation of a complex with fluorescein of which the experimental protocol is described below.
All the oligonucleotides, modified or otherwise, were synthesized by Eurogentec S A, Seraing, Belgium. The oligonucleotide FAM+DABCYL carries the catalogue reference OL-0371-0802. It has the sequence: […] corresponding to 3.5 repeats of the human telomeric unit (strand rich in G). The fluorescein is attached to the 5′ end, the DABCYL to the 3′ end, by the chemical arms described by Eurogentec. The concentration of the samples is checked by spectrophotometry, recording the absorbance spectrum between 220 and 700 nm and using the molar extinction coefficient provided by the supplier.
All the experiments were carried out in a 10 mM sodium cacodylate buffer pH 7.6 containing 0.1 M lithium chloride (or sodium chloride). The absence of fluorescent contamination in the buffer was checked beforehand. The fluorescent oligonucleotide is added at the final concentration of 0.2 μM.
All the measurements of fluorescence were carried out on a Spex Fluorolog DM1B apparatus, using an excitation line width of 1.8 nm and an emission line width of 4.5 nm. The samples are placed in a microquartz cuvette of 0.2×1 cm. The temperature of the sample is controlled by an external water bath. The oligonucleotide alone was analyzed at 20, 30, 40, 50, 60, 70 and 80° C. The emission spectra are recorded using an excitation wavelength of 470 nm. The excitation spectra are recorded using either 515 nm or 588 nm as emission wavelength. The spectra are corrected for the response of the instrument by reference curves. A high extinction (80–90%) of the fluorescence of fluorescein at room temperature is observed, in agreement with an intramolecular folding of the oligonucleotide at 20° C. in the form of a G-quadruplex, which induces juxtaposition of its 5′ and 3′ ends which are respectively linked to fluorescein and to DABCYL. This juxtaposition causes an already-described phenomenon of extinction of fluorescence which is used for “Molecular Beacons”.
An oligonucleotide stock solution at the strand concentration of 0.2 μM in 0.1 M LiCl, 10 mM cacodylate buffer, pH 7.6, is prepared beforehand, heated briefly at 90° C. and slowly cooled to 20° C., and then distributed in aliquots of 600 μl in the fluorescence cuvettes. […] The samples are then allowed to incubate for at least 1 hour at 20° C. before each measurement. The use of longer incubation times (up to 24 hours) has no influence on the result obtained.
Each experiment allows the measurement of only one sample. The latter is first incubated at an initial temperature of 20° C., heated to 80° C. over 38 minutes, left for 5 minutes at 80° C. and then cooled to 20° C. over 62 minutes. During this time, the fluorescence is measured simultaneously at two emission wavelengths (515 nm and 588 nm) using 470 nm as excitation wavelength. A measurement is carried out every 30 seconds. The temperature of the water bath is recorded in parallel, and the fluorescence profile as a function of the temperature is reconstituted from these values. The fluorescence profiles are then normalized between 20° C. and 80° C., and the temperature for which the intensity of emission at 515 nm is the mean of those at high and low temperature is called Tm. Under these conditions, the Tm of the reference sample without addition of product is 44° C. in a lithium chloride buffer. This temperature is increased to more than 55° C. in a sodium chloride buffer. The addition of a G-quadruplex stabilizing compound induces an increase in the Tm. This increase is judged to be significant if it is greater than 3°.

In assay [2] the test system is human telomerase (HL60 cell extract). Kind of assay: Inhibition of telomerase, TRAP test (TS extension and PCR with HL60 extract). Conditions: telomerase extract from HL60 cells. The class given is biochemical. The method, then: The extract is stored at -80° C.

On to `Cc1cc(N(C)C)c2cc(NC(=O)Cc3ccc(CC(=O)Nc4ccc5nc(C)cc(N(C)C)c5c4)cc3)ccc2n1` [Example 21, N,N′-bis(4-dimethylamino-2-methylquinolin-6-yl)-1,4-phenylenediacetamide], for which, in assay [1], the “G4 Tm (G4 stabilization differential in ° C., product tested at 1 µM)” value was 3 °C. 1300 nM corresponded to half-maximal inhibition in assay [2] (IC50). As to `Cc1cc(N)c2cc(NC(=O)c3ccc(C(=O)Nc4ccc5nc(C)cc(N)c5c4)nc3)ccc2n1.Cl` [Example 17, bis[(4-amino-2-methylquinolin-6-yl)amido]-2,5-pyridinedicarboxylic acid Hydrochloride], in assay [1], the “G4 Tm (G4 stabilization differential in ° C., product tested at 1 µM)” value came to 5.5 °C. This compound also showed an IC50 in assay [2] of 300 nM. For `Cc1cc(N)c2cc(NC(=O)c3ccc(C(=O)Nc4ccc5nc(C)cc(N)c5c4)s3)ccc2n1` [Example 3, bis[(4-amino-2-methylquinolin-6-yl)amido]-2,5-thiophenedicarboxylic acid], the “G4 Tm (G4 stabilization differential in ° C., product tested at 1 µM)” value in assay [1] is 1.7 °C. The IC50 in assay [2] came out at 950 nM. As for `COc1cc(C)nc2ccc(NC(=O)c3ccc(C(=O)Nc4ccc5nc(C)cc(OC)c5c4)s3)cc12` [Example 1, bis[(4-methoxy-2-methylquinolin-6-yl)amido]-2,5-thiophenedicarboxylic acid], in assay [1], the “G4 Tm (G4 stabilization differential in ° C., product tested at 1 µM)” value amounted to 2.5 °C. Besides, in assay [2], the half-inhibitory concentration (IC50) was found to be 1700 nM. For `Cc1cc(N(C)C)c2cc(NC(=O)c3ccc(C(=O)Nc4ccc5nc(C)cc(N(C)C)c5c4)cc3)ccc2n1` [Example 7, N,N′-bis(4-dimethylamino-2-methylquinolin-6-yl)-terephthalamide] the same measures were 2 °C and 1500 nM.

In the case of `Cc1cc(N(C)C)c2cc(NC(=O)c3ccc(C(=O)Nc4ccc5nc(C)cc(N(C)C)c5c4)nc3)ccc2n1` [Example 19, bis[(4-dimethylamino-2-methylquinolin-6-yl)-amido]-2,5-pyridinedicarboxylic acid], the “G4 Tm (G4 stabilization differential in ° C., product tested at 1 µM)” value in assay [1] stood at 16 °C. Also, the IC50 in assay [2] was 600 nM. For `Cc1cc(N)c2cc(NC(=O)c3cccc(C(=O)Nc4ccc5nc(C)cc(N)c5c4)c3)ccc2n1` [Example 6, N,N′-bis(4-amino-2-methylquinolin-6-yl)-isophthalamide] the same measures were 16 °C and 310 nM.

`COc1cc(C)nc2ccc(NC(=O)Nc3cccc(NC(=O)Nc4ccc5nc(C)cc(OC)c5c4)c3)cc12` [Example 8, 1-(4-methoxy-2-methylquinolin-6-yl)-3-{3-[3-(4-methoxy-2-methylquinolin-6-yl)ureido]phenyl}urea]: the “G4 Tm (G4 stabilization differential in ° C., product tested at 1 µM)” value in assay [1] is 2.5 °C. For the same compound, in assay [2], the IC50 was 750 nM. On to `Cc1cc(N(C)C)c2cc(NC(=O)c3cccc(C(=O)Nc4ccc5nc(C)cc(N(C)C)c5c4)n3)ccc2n1` [Example 24, bis-[(4-dimethylamino-2-methylquinolin-6-yl)-amido]-2,6-pyridinedicarboxylic acid hydrochloride], for which the “G4 Tm (G4 stabilization differential in ° C., product tested at 1 µM)” value in assay [1] amounted to 15.6 °C. In assay [2], this compound yielded a half-maximal inhibitory concentration (IC50) of 500 nM. Turning to `Cc1cc(N(C)C)c2cc(NC(=O)Nc3ccc(NC(=O)Nc4ccc5nc(C)cc(N(C)C)c5c4)cc3)ccc2n1` [Example 9, 1-(4-dimethylamino-2-methylquinolin-6-yl)-3-{4-[3-(4-dimethylamino-2-methylquinolin-6-yl)ureido]phenyl}urea], the “G4 Tm (G4 stabilization differential in ° C., product tested at 1 µM)” value in assay [1] was found to be 11.5 °C. Further, half-maximal inhibition in assay [2] (IC50) required 800 nM. With `Cc1cc(N(C)C)c2cc(NC(=O)c3ccnc(C(=O)Nc4ccc5nc(C)cc(N(C)C)c5c4)c3)ccc2n1` [Example 20, bis[(4-dimethylamino-2-methylquinolin-6-yl)-amido]-2,4-pyridinedicarboxylic acid], the midpoint of inhibition in assay [2], the IC50, lay at 1100 nM. Consider `Cc1cc(N(C)C)c2cc(NCc3ccc(C(=O)Nc4ccc5nc(C)cc(N(C)C)c5c4)nc3)ccc2n1` [Example 22, [(4-dimethylamino-2-methylquinolin-6-yl)-amido]-5-[(4-dimethylamino-2-methylquinolin-6-ylamino)methyl]pyridine-2-carboxylic acid Hydrochloride], for which the “G4 Tm (G4 stabilization differential in ° C., product tested at 1 µM)” value in assay [1] came to 4 °C. Moreover, in assay [2], it took 2900 nM to reach half-maximal inhibition (IC50). `Cc1cc(N(C)C)c2cc(NC(=O)c3ccc(C(=O)Nc4ccc5nc(C)cc(N(C)C)c5c4)s3)ccc2n1` [Example 2, bis[(4-dimethylamino-2-methylquinolin-6-yl)amido]-2,5-thiophenedicarboxylic acid]: the “G4 Tm (G4 stabilization differential in ° C., product tested at 1 µM)” value in assay [1] is 10.5 °C. In addition, in assay [2], the 50% inhibitory concentration (IC50) came to 900 nM. Take `Cc1cc(N(C)C)c2cc(NC(=O)/C=C/C(=O)Nc3ccc4nc(C)cc(N(C)C)c4c3)ccc2n1` [Example 18, N,N′-bis(4-dimethylamino-2-methylquinolin-6-yl)but-2-enediamide]: the “G4 Tm (G4 stabilization differential in ° C., product tested at 1 µM)” value in assay [1] came to 9 °C. For the same compound, the IC50 in assay [2] is 1200 nM. For `CSc1c(Cl)nc(Nc2ccc3nc(C)cc(N)c3c2)nc1Nc1ccc2nc(C)cc(N)c2c1` [Example 16, N,N′-bis(4-amino-2-methyl-6-quinolyl)-2,4-diamino-6-chloro-5-methylsulfanylpyrimidine] the same measures were 5 °C and 550 nM. As to `Cc1cc(N)c2cc(NC(=O)c3cccc(C(=O)Nc4ccc5nc(C)cc(N)c5c4)n3)ccc2n1` [Example 23, bis[(4-amino-2-methylquinolin-6-yl)-amido]-2,6-pyridinedicarboxylic acid hydrochloride], the “G4 Tm (G4 stabilization differential in ° C., product tested at 1 µM)” value in assay [1] is 23 °C. For the same compound, in assay [2], the IC50 was determined as 200 nM.
